The values below come from US4952585A, “Castanospermine esters in the inhibition of tumor metastasis” (Merrell Dow Pharmaceuticals Inc., priority 1988, dated 1990).

In one assay the test system is B16 F10 melanoma cells. As to the kind of experiment: inhibition of pulmonary metastases in C57 mice after pretreatment of B16 F10 melanoma cells with test compound in culture. The class given is in vivo, C57 male mice. The settings on record: Mus musculus, B16-F10, 360 h, pulmonary foci counted fifteen days after i.v. inoculation, read-out: per cent inhibition of metastases; for inhibition in vivo at 1 µg/mL: cells pretreated 48 hours with 1 μg/ml; for inhibition in vivo at 10 µg/mL: cells pretreated 48 hours with 10 μg/ml. How it is done: The lungs provide a convenient organ for the study of metastasis in the animal body.
A single suspension of B16 F10 melanoma cells was prepared from a 14 day old maintenance tumor excised from a C57 male mouse. The tumor was minced and trypsinized followed by dissociation of the cells in minimal essential medium (MEM) with fetal calf serum (FCS) by repeated pipetting. The preparation was passed through a sterile gauze pad, centrifuged, and the cell pellet washed in minimal essential medium without fetal calf serum. A trypan blue wet mount was made to determine the percent of viable cells.
The cells were then plated in 100 mm petri dishes at 0.5×10^6 viable cells/10 ml minimal essential medium with fetal calf serum and incubated at 37° C. for 24 to 48 hours. After incubation, the medium was aspirated and 10 ml of the test compounds at the concentrations of 1 μg or 10 μg/ml MEM with FCS was added. After 24 hours incubation, the medium was aspirated and 10 ml of fresh test compound-medium preparation was added.
Test compounds were dissolved in water or dimethyl sulfoxide and then diluted to the testing concentrations with medium. Control plates receive only medium and/or medium containing dimethyl sulfoxide.
After a total of 48 hours incubation, the testing medium was aspirated, the cells trypsinized and suspended in MEM with FCS. The cells were washed in MEM without FCS and resuspended at the concentration of 10×10^5 cells/ml of MEM without FCS.
C57 male mice weighing 20-25 grams (Charles River) were inoculated intravenously via the tail vein with 2×10^5 cells per 0.2 ml MEM without FCS/mouse. Fifteen days after inoculation, the animals were sacrificed by carbon dioxide inhalation and the lungs were removed and placed in formalin solution. The number of pulmonary foci per animal lung was counted (after separating the lobes) under a lighted dissecting lens.
Data can be expressed as the mean number of foci±S.E. per control and treatment groups. Treatment group data is also expressed as a percent of control and percent of inhibition (100% minus % of control). When the procedure described above was carried out on the castanospermine esters listed below, the per cent inhibition of metastases observed [at the dose, in micrograms per milliliter (μg/ml), given in parentheses] was as follows: […]

Assay [1] has as its system B16 melanoma F10 line cells. Kind of assay: inhibition of metastatic foci in the lungs of C57/BL mice injected i.v. with B16 melanoma F10 line cells, test compound given i.p. The class given is in vivo. The settings on record: 100 mg/kg, i.p. daily from day 1-15; metastatic foci in the lungs vs. controls. On the procedure:
In another experiment, 1×10^5 viable B16 melanoma F10 line cells were injected i.v. through the tail vein of C57/BL mice. Test compound was then administered at 100 mg/kg, i.p. daily from day 1-15. At the end of 15 days, the animals were sacrificed and the number of metastatic foci in the lungs were quantitated and compared to controls run simultaneously.

Another assay relates to experimental metastasis. The note with it: mice; Cancer Research, 46, 5215 (1986); cited from earlier work.

SMILES strings stand for the structures.

As to `O=C(O[C@H]1CN2CC[C@H](O)[C@@H]2[C@@H](O)[C@@H]1O)c1ccco1` [[1S-(1α,6β,7α,8β,8aβ)]-Octahydro-1,6,7,8-indolizinetetrol 6-(2-furancarboxylate)], in the assay on B16 F10 melanoma cells, the inhibition in vivo at 1 µg/mL was found to be 51%. Further, the “% INHIBITION of metastasis” value in assay [1] is given as 40%. `Cc1ccccc1C(=O)O[C@H]1CN2CC[C@H](O)[C@@H]2[C@@H](O)[C@@H]1O` [[1S-(1α,6β,7α,8β,8aβ)]-Octahydro-1,6,7,8-indolizinetetrol 6-(2-methylbenzoate)]: in the assay on B16 F10 melanoma cells, the inhibition in vivo at 10 µg/mL was 71%. `Cc1cccc(C(=O)O[C@H]2CN3CC[C@H](O)[C@@H]3[C@@H](O)[C@@H]2O)c1` [[1S-(1α,6β,7α,8β,8aβ)]-Octahydro-1,6,7,8-indolizinetetrol 6-(3-methylbenzoate)]: in the assay with B16 F10 melanoma cells, the inhibition in vivo at 1 µg/mL was found to be 78%. For the molecule `COc1ccc(C(=O)O[C@H]2CN3CC[C@H](O)[C@@H]3[C@@H](O)[C@@H]2O)cc1` [[1S-(1α,6β,7α,8β,8aβ)]-octahydro-1,6,7,8-indolizinetetrol 6-(4-methoxybenzoate)], the inhibition in vivo at 1 µg/mL in the assay with B16 F10 melanoma cells is 19%.

As for `Cc1ccc(C(=O)O[C@H]2CN3CC[C@H](O)[C@@H]3[C@@H](O)[C@@H]2O)cc1` [[1S-(1α,6β,7α,8β,8aβ)]-octahydro-1,6,7,8-indolizinetetrol 6-(4-methylbenzoate)], the inhibition in vivo at 10 µg/mL in the assay with B16 F10 melanoma cells is 75%. The “% INHIBITION of metastasis” value in assay [1] is 71%. As to `CC(=O)O[C@H]1CN2CC[C@H](O)[C@@H]2[C@@H](O)[C@@H]1O` [[1S-(1α,6β,7α,8β,8aβ)]-octahydro-1,6,7,8-indolizinetetrol 6-acetate], in the assay with B16 F10 melanoma cells, the inhibition in vivo at 1 µg/mL is greater than 50%. `O=C(O[C@H]1CN2CC[C@H](O)[C@@H]2[C@@H](O)[C@@H]1O)c1ccccc1` [[1S-(1α,6β,7α,8β,8aβ)]-octahydro-1,6,7,8-indolizinetetrol 6-benzoate]: the inhibition in vivo at 1 µg/mL in the assay on B16 F10 melanoma cells stood at 35%. The “% INHIBITION of metastasis” value in assay [1] stood at 66%. As to `CCCC(=O)O[C@H]1CN2CC[C@H](O)[C@@H]2[C@@H](O)[C@@H]1O` [[1S-(1α,6β,7α,8β,8aβ)]-octahydro-1,6,7,8-indolizinetetrol 6-butanoate], the inhibition in vivo at 10 µg/mL with B16 F10 melanoma cells turned out to be 13%. Take `Cc1ccc(C(=O)O[C@H]2[C@H](O)[C@H]3[C@@H](O)CCN3C[C@@H]2O)cc1` [[1S-(1α,6β,7α,8β,8aβ)]-octahydro-1,6,7,8-indolizinetetrol 7-(4-methylbenzoate)]: in the assay on B16 F10 melanoma cells, the inhibition in vivo at 1 µg/mL came out at 65%. As to `O=C(O[C@H]1[C@H](O)[C@H]2[C@@H](O)CCN2C[C@@H]1O)c1ccccc1` [[1S-(1α,6β,7α,8β,8aβ)]-octahydro-1,6,7,8-indolizinetetrol 7-benzoate], the inhibition in vivo at 1 µg/mL in the assay with B16 F10 melanoma cells came out at 23%. Same read-out and setting: the figure for `CCC(=O)O[C@H]1[C@H](O)[C@H]2[C@@H](O)CCN2C[C@@H]1O` [[1S-(1α,6β,7α,8β,8aβ)]-octahydro-1,6,7,8-indolizinetetrol 7-propionate] is 36%. Consider `O[C@H]1[C@H](O)[C@@H](O)CN2CC[C@H](O)[C@H]12` [castanospermine, (1S,6S,7R,8R,8aR)-1,6,7,8-tetrahydroxyindolizidine], for which the “inhibition of experimental metastasis” value in the assay on experimental metastasis is listed as “inhibition of experimental metastasis”.
